Results as given in US7910612B2, “4-oxy-N-[1,3,4]-thiadiazol-2-yl-benzene sulfonamides, pharmaceutical compositions and methods for their therapeutic use” (Sanofi-Aventis, priority 2005, dated 2011).

molecular target: T1, human PPARgamma (Homo sapiens, UniProt P37231); test: cellular PPARgamma assay (transiently transfected HEK cells, luciferase reporter); assay type: cell-based
T1 construct: amino acids 1152-Y475; expressed in transfected cells; host or cells: HEK (human embryonic kidney) cells, transiently transfected with pcDNA3-GAL4-humanPPARgammaLBD
T1 sequence (P37231 182-477 isoform P37231-2 limits assumed): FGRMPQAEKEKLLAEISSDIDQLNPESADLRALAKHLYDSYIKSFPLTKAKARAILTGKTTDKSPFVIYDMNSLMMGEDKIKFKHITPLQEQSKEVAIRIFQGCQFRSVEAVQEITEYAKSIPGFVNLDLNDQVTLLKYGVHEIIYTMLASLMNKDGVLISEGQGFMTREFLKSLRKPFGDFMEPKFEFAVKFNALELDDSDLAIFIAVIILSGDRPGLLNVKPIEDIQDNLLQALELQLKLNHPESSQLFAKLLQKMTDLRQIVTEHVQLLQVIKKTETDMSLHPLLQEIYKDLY
From the text: A transient transfection system is employed to determine the cellular PPARgamma activity of PPAR agonists. It is based on the use of a luciferase reporter plasmid (pGL3basic-5xGAL4-TK) and of a PPARgamma expression plasmid (pcDNA3-GAL4-humanPPARgammaLBD). Both plasmids are transiently transfected into human embryonic kidney cells (HEK cells). There is then expression in these cells of the fusion protein GAL4-humanPPARgammaLBD which binds to the GAL4 binding sites of the reporter plasmid. In the presence of a PPARgamma-active ligand, the activated fusion protein GAL4-humanPPARgammaLBD induces expression of the luciferase reporter gene, which can be detected in the form of a chemiluminescence signal after addition of a luciferase substrate. As a difference from the stably transfected PPARalpha reporter cell line, in the cellular PPARgamma assay the two components (luciferase reporter plasmid and PPARgamma expression plasmid) are transiently transfected into HEK cells because stable and permanent expression of the PPARgamma fusion protein is cytotoxic.
The luciferase reporter plasmid pGL3basic-5xGAL4-TK is based on the vector pGL3basic from Promega. The reporter plasmid is prepared by cloning five binding sites of the yeast transcription factor GAL4 (each binding site with the sequence 5′-CTCGGAGGACAGTACTCCG-3′), together with a 160 bp-long thymidine kinase promoter section (Genbank Accession #AF027128) 5′-upstream into pGL3basic. 3′-downstream of the thymidine kinase promoter is the complete luciferase gene from Photinus pyralis (Genbank Accession #M15077) which is already a constituent of the plasmid pGL3basic used. The cloning and sequencing of the reporter plasmid pGL3basic-5xGAL4-TK took place in analogy to the description in Sambrook J. et. al. (Molecular cloning, Cold Spring Harbor Laboratory Press, 1989).
The PPARgamma expression plasmid pcDNA3-GAL4-humanPPARgammaLBD was prepared by first cloning the cDNA coding for amino acids 1-147 of the yeast transcription factor GAL4 (Genbank Accession #P04386) into the plasmid pcDNA3 (from Invitrogen) 3′-downstream of the cytomegalovirus promoter. Subsequently, the cDNA of the ligand-binding domain (LBD) of the human PPARgamma receptor (amino acids […]; Accession #g1480099) 3′-downstream of the GAL4 DNA binding domain. Cloning and sequencing of the PPARgamma expression plasmid pcDNA3-GAL4-humanPPARgammaLBD again took place in analogy to the description in Sambrook J. et. al. (Molecular cloning, Cold Spring Harbor Laboratory Press, 1989). Besides the luciferase reporter plasmid pGL3basic-5xGAL4-TK and the PPARgamma expression plasmid pcDNA3-GAL4-humanPPARgammaLBD, also used for the cellular PPARgamma assay are the reference plasmid pRL-CMV (from Promega) and the plasmid pBluescript SK(+) from Stratagene. All four plasmids were prepared using a plasmid preparation kit from Qiagen, which ensured a plasmid quality with a minimal endotoxin content, before transfection into HEK cells.
The activity of PPARgamma agonists was then determined in a 4-day assay which is described below. Before the transfection, HEK cells are cultivated in DMEM (#41965-039, Invitrogen) which is mixed with the following additions: 10% FCS (#16000-044, Invitrogen), 1% penicillin-streptomycin solution (#15140-122, Invitrogen) and 2 mM L-glutamine (#25030-024, Invitrogen).
Firstly, solution A, a transfection mixture which contains all four plasmids previously described in addition to DMEM, is prepared. The following amounts are used to make up 3 ml of solution A for each 96 well microtiter plate for an assay: 2622 μl of antibiotic- and serum-free DMEM (#41965-039, Invitrogen), 100 μl of reference plasmid pRL-CMV (1 ng/μl), 100 μl of luciferase reporter plasmid pGL3basic-5xGAL4-TK (10 ng/μl), 100 μl of PPARgamma expression plasmid pcDNA3-GAL4-humanPPARgammaLBD (100 ng/μl) and 78 μl of plasmid pBluescript SK(+) (500 ng/μl). […]

For `Cc1nc(-c2ccc(C(F)(F)F)cc2)sc1COc1ccc(S(=O)(=O)Nc2nnc(C(C)C)s2)cc1` [Example 1, N-(5-Isopropyl-[1,3,4]thiadiazol-2-yl)-4-[4-methyl-2-(4-trifluoromethyl-phenyl)-thiazol-5-ylmethoxy]-benzenesulfonamide], which EC50 is on record?
The EC50 was 50 nM.

How did the EC50 turn out when `COc1ccc2c(COc3ccc(S(=O)(=O)Nc4nnc(C(C)C)s4)cc3)coc2c1` [Example 3, N-(5-Isopropyl-[1,3,4]thiadiazol-2-yl)-4-(6-methoxy-benzofuran-3-ylmethoxy)-benzenesulfonamide] was run?
Its EC50 is 460 nM.

Which EC50 does the source give for `CC(C)c1nnc(NS(=O)(=O)c2ccc(OCc3ccc(Oc4ccc(C(F)(F)F)cc4)cc3)cc2)s1` [Example 4, N-(5-Isopropyl-[1,3,4]thiadiazol-2-yl)-4-[4-(4-trifluoromethyl-phenoxy)-benzyloxy]-benzenesulfonamide] here?
Its EC50 is 460 nM.

`COc1ccc(-c2nc(COc3ccc(S(=O)(=O)Nc4nnc(C(C)C)s4)cc3)no2)cc1` [Example 9, N-(5-Isopropyl-[1,3,4]thiadiazol-2-yl)-4-[5-(4-methoxy-phenyl)-[1,2,4]oxadiazol-3-ylmethoxy]-benzenesulfonamide] was tested. Which EC50 did it give?
Its EC50 is 50 nM.

How did the EC50 turn out when `COc1ccc(-c2nc(COc3ccc(S(=O)(=O)Nc4nnc(C(C)C)s4)cc3)co2)cc1` [Example 13, N-(5-Isopropyl-[1,3,4]thiadiazol-2-yl)-4-[2-(4-methoxy-phenyl)-oxazol-4-ylmethoxy]-benzenesulfonamide] was run?
The EC50 was 1970 nM.

`CCc1oc(-c2cccc(C(F)(F)F)c2)nc1COc1ccc(S(=O)(=O)Nc2nnc(C(C)C)s2)cc1` [Example 14, 4-[5-Ethyl-2-(3-trifluoromethyl-phenyl)-oxazol-4-ylmethoxy]-N-(5-isopropyl-[1,3,4]thiadiazol-2-yl)-benzenesulfonamide] was tested. Which EC50 did it give?
The EC50 was 1 nM.
